Experimental findings from US7871631B2, “Methods of inhibiting the lowering of antihuman TNF-α antibody” (Ajinomoto Co., Inc., priority 2004, dated 2011) are described below.

The subject of data set [1] is patient with small intestine/large intestine type Crohn's disease. Nature of the data set: Clinical case: repeated administration of Infliximab under enteral administration of ELENTAL, Crohn's disease activity index (CDAI) and ulcer findings. The data set is classed as in vivo, human. The note with it: for CDAI two weeks later: ELENTAL continued. The method, then:
A patient is a person, and they are the patient with small intestine/large intestine type Crohn's disease that began. By August 2002, Crohn's disease repeatedly recurred and they were hospitalized three times.
In July 2002, since Crohn's disease recurred again accompanied by stomachache, diarrhea and fever, 5 mg/kg of Infliximab (REMICADE® (trademark) 100 for drip infusion) under the enteral administration of 1200 kcal of ELENTAL® (trademark) was administered to the patient. The clinical activity index of Crohn's disease before the administration was 186 (150 or higher fall into the active stage). However, the index was lowered to 67 two weeks after the administration. During the period, an open longitudinal ulcer(s) seen in the transverse colon and sigmoid colon was cicatrized. After that, thought the patient was treated with the home enteral nutritional therapy, the symptoms recurred in February 2003 and CDAI increased up to 230. Continuing the enteral administration of ELENTAL® (trademark), Infliximab (5 mg/kg) was administered for the second time. Then, CDAI was lowered again to 63 two weeks later. […] Therefore, Infliximab (5 mg/kg) was administered for the third time, and CDAI was lowered to 80 two weeks later. Before and after the administration for the third time, it was confirmed that an open ulcer(s) of the sigmoid colon was cicatrized. Similarly, though CDAI increased in the 50th week, 68th week and 83rd week from the first administration, CDAI of 147 to 275 decreased to 50 to 80 […] by the fourth, fifth and sixth time administrations of Infliximab. During that time, administration of ELENTAL was continued.
Usually, the repeated administration of Infliximab promotes production of antibody and, therefore, its effect weakens in the repeated administration.

For data set [2] the test system is unchanged.

For Infliximab, the “CDAI at recurrence of symptoms” value in data set [1] (February 2003, after first Infliximab administration, under home enteral nutritional therapy, before second administration) is 230. In addition, the “open ulcer(s) of the sigmoid colon” value in data set [1] (before and after the third administration of Infliximab 5 mg/kg under ELENTAL) was “cicatrized”. Moreover, the “open longitudinal ulcer(s) in the transverse colon and sigmoid colon” value in data set [1] (during the two weeks after first administration of Infliximab 5 mg/kg under ELENTAL) was “cicatrized”. Also, the “clinical activity index of Crohn's disease (CDAI) two weeks after the administration” value in data set [1] (first administration, Infliximab 5 mg/kg drip infusion under enteral ELENTAL 1200 kcal, index before administration 186 (150 or higher = active stage)) is given as 67. Besides, the “CDAI two weeks later” value in data set [1] (second administration of Infliximab 5 mg/kg, CDAI before 230) stood at 63; in data set [1] (third administration of Infliximab 5 mg/kg, CDAI before 250), 80. For the same substance, the “CDAI increase under administration of ELENTAL” value in data set [1] (two months after second administration, before third administration) worked out at 250. In data set [2] (first to sixth administration of Infliximab with ELENTAL), the tuberculosis bacterium infection result was “not seen”. The “infection in organs of respiration or in a urinary tract” value in data set [2] (human, in vivo) is listed as “no finding of indication of infection”.
